# Test system: Phosphorylation of STAT6 in human A549 cells
# Experiment: Phosphorylated STAT6 (pSTAT6) flow cytometry assay in human A549 cells
# Type: cell-based
# Conditions: listed as I-393, read-out: STAT6 IL4 pSTAT6 assay in A549 cells: Average IC50
# Excerpt: Example 3. Phosphorylated STAT6 (pSTAT6) Flow Cytometry Assay in Human A549 Cells
# Phosphorylation of STAT6 in human A549 cells was quantitatively measured using flow cytometry technology.
row,IC50 [µM],SMILES
1,< 0.1,"CCC1CN(C)CC1c1cc(C2=CCCN(C(=O)CCn3ccnn3)C2)c(F)c2[nH]c(C(=O)N3CCN(c4ncc(F)cc4OC)CC3)cc12 (stereo not shown) [Example I-1208, 1-[5-[4-(4-ethyl-1-methyl-pyrrolidin-3-yl)-7-fluoro-2-[4-(5-fluoro-3-methoxy-2-pyridyl)piperazine-1-carbonyl]-1H-indol-6-yl]-3,6-dihydro-2H-pyridin-1-yl]-3-(triazol-1-yl)propan-1-one]"

# Same assay, conditions: read-out: STAT6 IL4 pSTAT6 assay in A549 cells: Average IC50
row,IC50 [µM],SMILES
1,> 100,CCc1ccc(-c2cc(C(=O)N3Cc4cnn(CC)c4C3)cc3cc(C4=CCCN(C(=O)CC(=O)O)C4)n(CC(C)C)c23)c(C)n1 [Example I-801]
2,< 0.1,COc1ccccc1-c1cc(C2=CCCN(C(=O)CCn3ccnn3)C2)c(F)c2[nH]c(C(=O)N3CCN(C4CC4)CC3)cc12 [Example I-325]
3,< 0.1,COc1ccccc1-c1cc(C2=CCCN(C(=O)CCn3ccnn3)C2)c(F)c2sc(C(=O)N3CCN(c4ncccc4OC)CC3)cc12 [Example I-346]
4,< 0.1,COc1cc(F)cnc1N1CCN(C(=O)c2cc3c(C4=CCN(C(C)=O)CC4)cc(C4=CCCN(C(=O)CCn5ccnn5)C4)c(F)c3[nH]2)CC1 [Example I-657]
5,< 0.1,COc1ccccc1-c1cc(C(=O)N(C)C)cc2cc(C3=CCCN(C(=O)CCn4ccnn4)C3)n(CC3CC3)c12 [Example I-899]
6,< 0.1,COc1ccccc1-c1cc(C2=CCCN(C(=O)CCn3ccnn3)C2)c(F)c2[nH]c(C(=O)N3CCN(c4ccccc4C)CC3)cc12 [Example I-421]
7,< 0.1,COc1ccccc1-c1cc(C2=CCCN(C(=O)CCn3ccnn3)C2)c(F)c2[nH]c(C(=O)N3CCN(c4c(F)ccc5cnccc45)CC3)cc12 [Example I-972]
8,< 0.1,COCOc1cc(F)ccc1-c1cc(C2=CCCN(C(=O)CCn3ccnn3)C2)c(F)c2[nH]c(C(=O)N3CCN(c4ncc(F)cc4OC)CC3)cc12 [Example I-670]
9,> 100,COc1cnccc1-c1cc(C2=CCCN(C(C)=O)C2)c(F)c2[nH]c(C(=O)N3CCN(c4ncc(F)cc4OC)CC3)cc12 [Example I-697]
10,< 0.1,CCOc1ccncc1-c1cc(C2=CCCN(C(=O)CCn3ccnn3)C2)c(F)c2[nH]c(C(=O)N3CCN(c4cncnc4OC)CC3)cc12 [Example I-470]
11,> 100,COc1ccncc1-c1cc(C2=CCCN(C(=O)CCn3ccnn3)C2)c(F)c2[nH]c(C(=O)N3CCN(c4nc(C)c(F)cc4OC)CC3)cc12 [Example I-500]
12,< 0.1,CNc1ccc(-c2cc(C3=CCCN(C(=O)CCn4ccnn4)C3)c(F)c3[nH]c(C(=O)N(C)C)cc23)c(OC)c1 [Example I-1059]
13,< 0.1,COc1ccccc1N1CCN(C(=O)c2cc3c(-c4cc(F)cc(F)c4OC)cc(C4=CCCN(C(=O)CCn5ccnn5)C4)c(F)c3[nH]2)CC1 [Example I-601]
14,< 0.1,COc1cc(F)cnc1N1CCN(C(=O)c2cc3c(-c4ccc(-c5cccnc5)cc4)cc(C4=CCCN(C(=O)CCn5ccnn5)C4)c(F)c3[nH]2)CC1 [Example I-1152]
15,0.1 to 1,COc1ccccc1-c1cc(C2=CCCN(C(=O)CCn3ccnn3)C2)c(F)c2[nH]c(C(=O)N3CCC(C)(O)C3)cc12 (stereo not shown) [Example I-1006]
16,0.1 to 1,COc1ccccc1-c1cc(C2=CCCN(C(=O)CCn3ccnn3)C2)c(F)c2[nH]c(C(=O)N3CCN(c4ccc(OC)c(OC)c4OC)CC3)cc12 [Example I-922]
17,< 0.1,COc1ccncc1-c1cc(C2=CCCN(C(=O)CCn3ccnn3)C2)c(F)c2[nH]c(C(=O)N3CCN(c4cccc(F)c4OC)CC3)cc12 [Example I-563]
18,< 0.1,COc1ccccc1-c1cc(C2=CCCN(C(=O)CCn3ccnn3)C2)c(F)c2[nH]c(C(=O)N3CCN(Cc4ccncc4)CC3)cc12 [Example I-858]
19,< 0.1,CN(C)C(=O)c1cc2c(-c3cc4cc[nH]c4cc3Cl)cc(C3=CCCN(C(=O)CCn4ccnn4)C3)cc2[nH]1 [Example I-1066]
20,< 0.1,COc1cc(F)cnc1N1CCN(C(=O)c2cc3c(C=C4CCOCC4)cc(C4=CCCN(C(=O)CCn5ccnn5)C4)c(F)c3[nH]2)CC1 [Example I-644]
21,< 0.1,COc1cc(F)cnc1N1CCN(C(=O)c2cc3c(-c4ccc(OC5CCCCO5)cc4)cc(C4=CCCN(C(=O)CCn5ccnn5)C4)c(F)c3[nH]2)CC1 (stereo not shown) [Example I-1166]
22,< 0.1,COc1cccnc1N1CCN(C(=O)c2cc3c(-c4cccc(C)c4OC)cc(C4=CCCN(C(=O)CCn5ccnn5)C4)c(F)c3[nH]2)CC1 [Example I-560]
23,< 0.1,COc1ccccc1-c1cc(C2=CCCN(C(=O)CCn3ccnn3)C2)c(F)c2[nH]c(C(=O)N3CCN(c4ccc(F)c(F)c4F)CC3)cc12 [Example I-769]
24,> 100,COc1cccnc1N1CCN(C(=O)c2cc3c(-c4cnc5ccccc5c4OC)cc(C4=CCCN(C(=O)CCn5ccnn5)C4)c(F)c3[nH]2)CC1 [Example I-402]
25,< 0.1,COc1ccccc1-c1cc(C2=CCCN(C(=O)CCn3ccnn3)C2)c(F)c2[nH]c(C(=O)N3CCN(c4ccccn4)CC3)cc12 [Example I-862]
26,< 0.1,COc1cc(F)cnc1N1CCN(C(=O)c2cc3c(C4=COCCC4)cc(C4=CCCN(C(=O)CCn5ccnn5)C4)c(F)c3[nH]2)CC1 [Example I-1155]
27,< 0.1,CCn1nccc1-c1cc(C(=O)N2Cc3cnn(CC)c3C2)cc2cc(C3=CCCN(C(=O)CCn4ccnn4)C3)n(CC3CC3)c12 [Example I-544]

row,IC50 [µM],SMILES
1,< 0.1,COc1cc(F)cnc1N1CCN(C(=O)c2cc3c(-c4cccc(C)c4)cc(C4=CCCN(C(=O)CCn5ccnn5)C4)c(F)c3[nH]2)CC1 [Example I-673]
2,> 100,CCc1cnccc1-c1cc(C2=CCCN(C(=O)CCn3ccnn3)C2)c(F)c2[nH]c(C(=O)N3CCN(c4ncccc4OC)CC3)cc12 [Example I-608]
3,10 to 100,CCc1ccncc1-c1cc(C2=CCCN(C(C)=O)C2)c(F)c2[nH]c(C(=O)N3CCN(c4cc(F)cnc4OC)CC3)cc12 [Example I-699]
4,< 0.1,CCc1ccncc1-c1cc(C2=CCCN(C(=O)CCn3ccnn3)C2)c(F)c2[nH]c(C(=O)N3CCN(c4ncccc4OC4CC4)CC3)cc12 [Example I-479]
5,< 0.1,CN(C)C(=O)c1cc2cc(C3=CCCN(C(=O)CCn4ccnn4)C3)cc(NCc3cccc4ncccc34)c2o1 [Example I-871]
6,< 0.1,COc1cnccc1-c1cc(C2=CCCN(C(=O)CCn3cccn3)C2)c(F)c2[nH]c(C(=O)N3CCN(c4ncc(F)cc4OC)CC3)cc12 [Example I-663]
7,< 0.1,COc1cccnc1N1CCN(C(=O)c2cc3c(-c4cnccc4OC4CC4)cc(C4=CCCN(C(=O)CCn5ccnn5)C4)c(F)c3[nH]2)CC1 [Example I-556]
8,0.1 to 1,CN(C)C(=O)c1cc2cc(C3=CCCN(C(=O)CCn4ccnn4)C3)cc(NCc3ccc(C(F)(F)F)cc3)c2o1 [Example I-877]
9,< 0.1,COc1cc(F)cnc1N1CCN(C(=O)c2cc3c(-c4ccc(C(C)N5CCOCC5)cc4)cc(C4=CCCN(C(=O)CCn5ccnn5)C4)c(F)c3[nH]2)CC1 (stereo not shown) [Example I-1121]
10,10 to 100,COc1cccnc1N1CCN(C(=O)c2cc3c(C4CCC5(CCNCC5)CC4)cc(C4=CCCN(C(=O)CCn5ccnn5)C4)c(F)c3[nH]2)CC1 [Example I-698]
11,< 0.1,COc1cc(F)cnc1N1CCN(C(=O)c2cc3c(-c4cnn(C)c4-c4ccccc4)cc(C4=CCCN(C(=O)CCn5ccnn5)C4)c(F)c3[nH]2)CC1 [Example I-621]
12,0.1 to 1,CN(C)C(=O)c1cc2ccc(C3=CCCN(C(=O)CCn4cccn4)C3)cc2[nH]1 [Example I-826]
13,0.1 to 1,CC(=O)N1CCC=C(c2cc(-c3ccc4n[nH]c(C)c4c3)c3cc(C(=O)N(C)C)[nH]c3c2F)C1 [Example I-883]
14,< 0.1,COc1ccccc1-c1cc(C2=CCCN(C(=O)CCn3ccnn3)C2)c(F)c2[nH]c(C(=O)N3CCN(c4cccnc4)CC3)cc12 [Example I-774]
15,< 0.1,COc1cncc(C)c1-c1cc(C2=CCCN(C(=O)CCn3ccnn3)C2)cc2cc(C(=O)N(C)C)oc12 [Example I-1090]
16,< 0.1,COc1cccnc1N1CCN(C(=O)c2cc3c(-c4cc(C#N)ccn4)cc(C4=CCCN(C(=O)CCn5ccnn5)C4)c(F)c3[nH]2)CC1 [Example I-581]
17,< 0.1,COc1ccccc1-c1cc(C2=CCCN(C(=O)CCn3ccnn3)C2)c(F)c2[nH]c(C(=O)N3CCN(c4ncccc4F)CC3)cc12 [Example I-361]
18,< 0.1,COc1ccccc1-c1cc(C2=CCCN(C(=O)CCn3ccnn3)C2)c(F)c2[nH]c(C(=O)N3CCN(c4cc5cccnc5cc4F)CC3)cc12 [Example I-924]
19,< 0.1,CCc1cc(C)ncc1-c1cc(C2=CCCN(C(=O)CCc3nccs3)C2)c(F)c2[nH]c(C(=O)N3Cc4cnn(CC)c4C3)cc12 [Example I-538]
20,< 0.1,COc1cc(F)cnc1N1CCN(C(=O)c2cc3c(C4=CCC(F)(F)CC4)cc(C4=CCCN(C(=O)CCn5ccnn5)C4)c(F)c3[nH]2)CC1 [Example I-1158]
21,< 0.1,CC#Cc1cc(-c2cc(C3=CCCN(C(=O)CCn4ccnn4)C3)c(F)c3[nH]c(C(=O)N4CCN(c5ncc(F)cc5OC)CC4)cc23)ccn1 [Example I-634]
22,10 to 100,CCc1ccccc1-c1cc(C2=CCCN(C(=O)CCn3ccnn3)C2)c(F)c2[nH]c(C(=O)N3Cc4cnn(C)c4C3)cc12 [Example I-700]
23,10 to 100,CCn1ncc2c1CN(C(=O)c1cc3c(-c4ccccc4OC)cc(C4=CCCN(C(=O)CCn5ccnn5)C4)c(F)c3[nH]1)C2 [Example I-507]
24,> 100,CCc1cnccc1-c1cc(C(=O)N2CCN(c3ncc(F)cc3OC)CC2)cc2cc(C3=CCCN(C(=O)CCn4ccnn4)C3)n(CC3CC3)c12 [Example I-542]
25,< 0.1,COc1ccccc1-c1cc(C2=CCCN(C(=O)CCn3ccnn3)C2)c(F)c2[nH]c(C(=O)N3CCC4CC43)cc12 (stereo not shown) [Example I-1011]
26,1 to 10,COc1ccncc1-c1cc(C(=O)N2CCN(c3ncc(F)cc3OC)CC2)cc2cc(C3CCCN(C(=O)CCn4ccnn4)C3)[nH]c12 (stereo not shown) [Example I-1203]
27,0.1 to 1,COc1ccccc1-c1cc(C2=CCCN(C(=O)CCn3ccnn3)C2)c(F)c2[nH]c(C(=O)N3CCN(c4nc5ccccc5c5ccccc45)CC3)cc12 [Example I-916]

# Source: patent US20250214977A1, “STAT6 INHIBITORS AND USES THEREOF” (Kymera Therapeutics, Inc., priority 2024, published 2025)
